The record followed here is PMC10254233, “Synthesis and In Vitro Biological Evaluation of p-Carborane-Based Di-tert-butylphenol Analogs” (Molecules, 2023).

Data set [1] deals with A375 melanoma. The data set is described as follows: Cell viability, MTT assay, A375. The class given is cell-based, human. The settings on record: Homo sapiens, A-375; 72 h, mean ± SD. The procedure:
(§1) Five human cell lines (A375 melanoma, A549 lung adenocarcinoma, HCT116 and HT29 colorectal carcinoma, MDA-MB-231 triple-negative breast adenocarcinoma) were used to study the antitumor effects of the di-tert-butylphenols and their respective carborane analogs. All selected cell lines were derived from inflammation-associated tumors.
(§2) After the incubation period, the supernatant was discarded from the wells, and the cells were washed two times with 200 µL of PBS. Next, MTT solution at a final concentration of 0.5 mg/mL was added and incubated at 37 °C until purple formazan crystals were formed (30 min to one hour). After incubation, the dye was discarded. In order to dissolve the formed formazan crystals DMSO was added, and the absorbance was measured at λmax = 540 nm, with the reference/background wavelength of 670 nm. All results are expressed as a percentage of the control value which was arbitrary set to 100%. After 72 h treatment, cells were washed with 200 µL of PBS and fixed with 4% paraformaldehyde (PFA) for 15 min at room temperature (RT). Next, cells were stained with 1% CV solution. After 20 min, cells were washed in tap water and dried on air. Dye was dissolved in 33% acetic acid and the absorbance was measured at λmax = 540 nm, with the reference/background wavelength of 670 nm. Results were expressed as a percentage of the control value which was arbitrary set to 100%.
(§3) 1. General methods, materials, and procedures
(§4) 1.1.1. Reagents and cells
(§5) Reagents and cells were obtained from following manufacturers: Capricorn Scientific GmbH (Hessen, Germany) – Culture medium RPMI-1640, Dulbecco's Modified Eagle Medium (DMEM), and fetal bovine serum (FBS). Serva (Heidelberg, Germany) – Paraformaldehyde (PFA). Sigma (St. Louis, MO, USA) – Ethylenediaminetetraacetic acid (EDTA), Dimethyl sulfoxide (DMSO), chloroquine, CV, Triton X-100, RNase, PI, PBS, 3-MA, CFSE, and fluorescent mounting medium. AppliChem (MO, USA) –MTT. Thermo Fisher Scientific (Waltham, MA, USA) – DHR. R&D Systems (Minneapolis, MN, USA) – ApoStat. BD (Pharmingen, San Diego, SAD) – Annexin V-FITC (AnnV). Biological Industries (Cromwell, CT, USA) – Penicillin Streptomycin solution. American Type Culture Collection (ATCC, Manassas, Virginia, USA) – Human lung carcinoma (A549), human breast adenocarcinoma (MDA-MB-231), human colorectal ade-nocarcinoma (HT-29), human colorectal carcinoma (HCT116) and human melanoma (A375).
(§6) Cell lines (A375, HCT116, HT-29 and MDA-MB-231) were cultivated in HEPES-buffered RPMI-1640 medium while A549 cell line was cultivated in Dulbecco's Modified Eagle Medium (DMEM) which were previously supplemented with 10% heat-inactivated FBS, penicillin (100 units/mL), and streptomycin (100 μg/mL). All cells were kept at 37 °C in a humidified atmosphere with 5% CO2. For viability determi-nation cells were seeded at following densities in 96-well plates: 4 x 10^3 cells/well (A375, HT-29 and MDA-MB-231), 5 x 10^3 cells/well (HCT116), and 3 x 10^3 cells/well (A549). […]
(§7) Afterwards, cells were washed with phosphate-buffered saline (PBS) and stained with AnnV (15 μg/mL) and PI (15 μg/mL). […]
(§8) PBS and analyzed using flow cytometry. HCT116 cells were stained with 1 µg/mL of AO solution for 15 min at 37 °C to detect the presence of autophagic cell death. Afterwards cells were washed with PBS, resuspended and analyzed by flow cytometry (CyFlow® Space Partec using the PartecFloMax® software
For orientation: Tetrazolium assays rely on reduction of a dye to a coloured formazan, in cell work by metabolically active cells.

The subject of data set [2] is A549 lung adenocarcinoma. The data set is described as follows: Cell viability, MTT assay, A549. As to conditions: Homo sapiens, A549; 72 h, mean ± SD. Type of data set: cell-based, human. As for the experimental part: as §1, §2, §3, §4, §5, §6
(§9) Afterwards, cells were washed with phosphate-buffered saline (PBS) and stained with AnnV (15 μg/mL) and PI (15 μg/mL). After 15 min incubation at room temperature (RT) protected from light the cells were resuspended in AnnV-binding buffer and analysed using flow cytom-etry. HCT116 cells were incubated with pan-caspase inhibitor Apostat for 30 min at 37 °C to determine whether detected apoptosis was mediated by caspase activation. Afterwards, cells were washed with PBS and analyzed using flow cytometry. HCT116 cells were stained with 1 µg/mL of AO solution for 15 min at 37 °C to detect the presence of autophagic cell death. Afterwards cells were washed with PBS, resuspended and analyzed by flow cytometry (CyFlow® Space Partec using the PartecFloMax® software

For data set [3], the system named is HCT116 colorectal carcinoma. The data set is described as follows: Cell viability, MTT assay, HCT116. The class given is cell-based, human. As to conditions: Homo sapiens, HCT-116; 72 h, mean ± SD. The procedure: as §1, §2, §3, §4, §5, §6, §7, §8
Data set [4] has as its system HT-29 colorectal carcinoma. Nature of the data set: Cell viability, MTT assay, HT-29. Type of data set: cell-based, human. The settings on record: Homo sapiens, HT-29; 72 h, mean ± SD. The procedure:
as §1, §2, §3, §4, §5, §6, §9

Data set [5] relates to MDA-MB-231 triple-negative breast adenocarcinoma. Nature of the data set: Cell viability, MTT assay, MDA-MB-231. Type of data set: cell-based, human. The settings on record: Homo sapiens, MDA-MB-231; 72 h, mean ± SD. As for the experimental part: as §1, §2, §3, §4, §5, §6, §9
For data set [6], the system named is A375 melanoma. The data set is described as follows: Cell viability, crystal violet (CV) assay, A375. Type of data set: cell-based. The settings on record: Homo sapiens, A-375; 72 h, mean ± SD. The procedure:
as §1, §2, §3, §4
as §5, with “American Type Culture Collection (ATCC, Manassas, Virginia, USA) – Human lung carcinoma (A549), human breast adenocarcinoma (MDA-MB-231), human colorectal ade-nocarcinoma (HT-29), human colorectal carcinoma (HCT116) and human melanoma (A375).” left out
as §9, with “HCT116 cells were stained with 1 µg/mL of AO solution for 15 min at 37 °C to detect the presence of autophagic cell death.” left out

Data set [7] relates to A549 lung adenocarcinoma. Nature of the data set: Cell viability, crystal violet (CV) assay, A549. Type of data set: cell-based. As to conditions: Homo sapiens, 72 h, mean ± SD. As for the experimental part:
as §1, §2, §3, §4
as §5, with “American Type Culture Collection (ATCC, Manassas, Virginia, USA) – Human lung carcinoma (A549), human breast adenocarcinoma (MDA-MB-231), human colorectal ade-nocarcinoma (HT-29), human colorectal carcinoma (HCT116) and human melanoma (A375).” left out
as §9, with “HCT116 cells were stained with 1 µg/mL of AO solution for 15 min at 37 °C to detect the presence of autophagic cell death.” left out

In data set [8] the test system is HCT116 colorectal carcinoma. Nature of the data set: Cell viability, crystal violet (CV) assay, HCT116. The class given is cell-based. The settings on record: Homo sapiens, HCT-116; 72 h, mean ± SD. As for the experimental part: as §1, §2, §3, §4
as §5, with “American Type Culture Collection (ATCC, Manassas, Virginia, USA) – Human lung carcinoma (A549), human breast adenocarcinoma (MDA-MB-231), human colorectal ade-nocarcinoma (HT-29), human colorectal carcinoma (HCT116) and human melanoma (A375).” left out
as §9, with “HCT116 cells were stained with 1 µg/mL of AO solution for 15 min at 37 °C to detect the presence of autophagic cell death.” left out

For data set [9], the system named is HT-29 colorectal carcinoma. Nature of the data set: Cell viability, crystal violet (CV) assay, HT-29. The settings on record: Homo sapiens, 72 h, mean ± SD. The class given is cell-based. The procedure: as §1, §2, §3, §4
as §5, with “American Type Culture Collection (ATCC, Manassas, Virginia, USA) – Human lung carcinoma (A549), human breast adenocarcinoma (MDA-MB-231), human colorectal ade-nocarcinoma (HT-29), human colorectal carcinoma (HCT116) and human melanoma (A375).” left out
as §9, with “HCT116 cells were stained with 1 µg/mL of AO solution for 15 min at 37 °C to detect the presence of autophagic cell death.” left out

Data set [10] relates to MDA-MB-231 triple-negative breast adenocarcinoma. The data set is described as follows: Cell viability, crystal violet (CV) assay, MDA-MB-231. Type of data set: cell-based. The settings on record: Homo sapiens, 72 h, mean ± SD. The procedure:
as §1, §2, §3, §4
as §5, with “American Type Culture Collection (ATCC, Manassas, Virginia, USA) – Human lung carcinoma (A549), human breast adenocarcinoma (MDA-MB-231), human colorectal ade-nocarcinoma (HT-29), human colorectal carcinoma (HCT116) and human melanoma (A375).” left out
as §9, with “HCT116 cells were stained with 1 µg/mL of AO solution for 15 min at 37 °C to detect the presence of autophagic cell death.” left out

A short description of a further data set: physchem. As to conditions: pH 7.4.
The test system of data set [11] is primary peritoneal exudate cells. Nature of the data set: Viability of primary peritoneal exudate cells, CV assay. The settings on record: 72 h, cells from healthy mice. Type of data set: cell-based.
Description: Primary peritoneal exudates cells (PEC) isolated from C57BL/6 mice were used to estimate the selec-
Mice were obtained from the animal facility at the Institute for Biological Research “Siniša Stanković” - National Institute of the Republic of Serbia, University of Belgrade (Belgrade, Serbia). PEC were cultivated in HEPES-buffered (HEPES = 4-
5% heat-inactivated fetal bovine serum (FBS) and antibiotics under standard growth conditions (37 °C, 5% CO2). For viability determination cells were seeded at a density of 2 x 10^5 cells/well in 96-well plates.
Non-adherent cells were removed two hours after seeding and treatment was applied. Cell viability was determined after 72 h using a crystal violet (CV) assay.
the indicated concentrations for 72 h. Cell viability was determined by the CV test. The data are presented as a mean ± SD from one repre-
sentative out of three independent experiments. *p<0.05 refer to untreated cultures.

As to `CC(C)(C)c1cc(C=C2CCOC2=O)cc(C(C)(C)C)c1O` [KME-4, 3-([3,5-bis(1,1-dimethylethyl)-4-hydroxyphenyl]methylene)dihydro-2(3H)-furanone], the IC50 – broadly, the point on the concentration scale where inhibition reaches its midpoint – with A375 melanoma [1] is 13.8 ± 0.6 µM; in the data set with A549 lung adenocarcinoma [2], 21.9 ± 0.7 µM; in data set [3], 18.4 ± 4.6 µM; in [4], 18.5 ± 1.5 µM; in [5], 80.9 ± 7.3 µM; with A375 melanoma [6] it was 36.4 ± 1.3 µM. For the same compound, the IC50 in the data set with A549 lung adenocarcinoma [7] was determined as 36.3 ± 2.8 µM; in [8] it was 36.2 ± 1.9 µM; in [9] it was 36.2 ± 1.9 µM; in data set [10] it was 88.6 ± 2.4 µM. The chromatographic logD (usually lipophilicity estimated from chromatographic retention) in the data set “physchem” was 3.79.
Take `CC(C)(C)c1cc(C(=O)c2cccs2)cc(C(C)(C)C)c1O` [Compound R-830, 2,6-di-tert-butyl-4-(2’-thenoyl)phenol]: the IC50 in the data set on A375 melanoma [1] is 16.7 ± 3.1 µM; in the data set on A549 lung adenocarcinoma [2], 19 ± 0.7 µM; in data set [3], 20.6 ± 0.4 µM; in [4], 19.4 ± 0.4 µM; in [5], 33.3 ± 1.2 µM; in the data set with A375 melanoma [6], 29.4 ± 2.3 µM. Besides, the IC50 came out at 32.6 ± 1.3 µM in the data set with A549 lung adenocarcinoma [7], 30.8 ± 3.2 µM in [8], 24.9 ± 1.3 µM in [9] and 34 ± 1.6 µM in [10]. Besides, the “viability of primary peritoneal exudate cells” value in data set [11] is on record as “diminished the viability of primary cells at 100 µM”. Moreover, the chromatographic logD in the data set “physchem” amounted to 3.91.
Take `CON1CCC(=Cc2cc(C(C)(C)C)c(O)c(C(C)(C)C)c2)C1=O` [Compound E-5110, 3-([3,5-bis(1,1-dimethylethyl)-4-hydroxyphenyl]methylene)-1-methoxy-2-pyrrolidinone]: the IC50 in the data set with A375 melanoma [1] worked out at 12.9 ± 1.1 µM; in the data set on A549 lung adenocarcinoma [2], 22.1 ± 1.6 µM; in [3], 25.1 ± 1.1 µM; in [4], 25.6 ± 2.6 µM; in data set [5], 34.2 ± 1.2 µM; with A375 melanoma [6] it was 33.5 ± 1.7 µM. Also, the IC50 with A549 lung adenocarcinoma [7] was found to be 41.1 ± 4.3 µM; in data set [8], 39.6 ± 2.8 µM; in [9] it was 39.8 ± 2.1 µM; in data set [10], 47.3 ± 1.7 µM. The same compound gave a chromatographic logD in the data set “physchem” of 3.35.
